Key:
[1] = system: ERK1/2 MAP kinase, Akt, p70 S6 kinase, PHAS-I phosphorylation in LTED cells; test: Western analysis of serum-stimulated kinase phosphorylation, LTED cells; format: cell-based, human
Procedure: (§1) FIGS. 7A-7D represent data showing the effect of FTS on serum-stimulated activation of MAP kinase, PI3 kinase, and mTOR. Subconfluent MCF-7 and LTED cells grown in 60 mm dishes were treated with FTS in their culture media for 24 h. Cells were then harvested and cell lysate prepared. Phosphorylation of ERK1/2 MAP kinase (FIG. 7A), Akt at Ser^473 (FIG. 7B), p70 S6 kinase at Thr^389 (FIG. 7C), and PHAS-I at Ser^65 (FIG. 7D) was detected by Western analysis using specific antibodies and quantitated by densitometry scanning.
FIGS. 10A-10D represent data showing the effect of FTS on serum- and growth factor-induced phosphorylation of p70 S6 kinase at Thr^229 in LTED cells (FIG. 10A). Comparison of FTS and LY 294002 (LY) on Thr^229 phosphorylation of p70 S6K induced by EGF (FIG. 10B; by same treatment as described in FIG. 8). Comparison of FTS and LY 294002 on […] phosphorylation of p70 S6K induced by IGF-1 (FIG. 10C; by same treatment as described in FIG. 8). FIG. 10D is graph displaying the time course of FTS (100 μM) effects on Thr^389 and Thr^229 phosphorylation of p70 S6K in LTED cells cultured in serum containing IMEM.
(§2) The levels of phosphorylated ERK1/2 MAPK, Akt (Ser^473), p70S6K (Thr^389) and PHAS-1 (Ser^65) were consistently elevated in LTED cells compared to those in wild type MCF-7 cells as indicated by Western blot analysis using specific antibodies against phosphorylated ERK 1/2 (FIG. 7A), Akt (FIG. 7B), p70S6 kinase (FIG. 7C) and PHAS-1 (FIG. 7D). […] (FIGS. 7C & 7D).
In contrast, LY294002 blocked growth factor induced Thr^229 phosphorylation in a dose- and time-dependent manner (FIGS. 10A and 10B). […] Therefore, FTS's effect on MTOR activity was investigated.

[2] = system: ERK1/2 MAP kinase, Akt, p70 S6 kinase, PHAS-I phosphorylation in MCF-7 cells; test: Western analysis of serum-stimulated kinase phosphorylation, MCF-7 cells; format: cell-based, human; conditions: FTS 24 h
Procedure: as §1, §2

[3] = molecular target: T1, mTOR-raptor complex (Homo sapiens, UniProt P42345+Q8N122); test: Coimmunoprecipitation of raptor with mTOR from 293T cells incubated with compound; format: cell-based; conditions: nontransfected 293T cells
T1 construct: expressed in transfected cells; host or cells: 293T
Procedure: (§3) FIG. 11A & 11B represent data showing FTS inhibits PHAS-I phosphorylation and promotes dissociation of the mTOR-raptor complex in 293T cells. 293T cells were transfected with pcDNA3AU1-mTOR, pcDNA33HARaptor, pcDNA33HA-mLST8, and pCMV-Tag3APHAS-I (FIG. 11A). After 18 h the cells were incubated for 1 h with increasing concentrations of FTS before extracts were prepared. A sample of each extract was subjected to SDS-PAGE and immunoblotted to detect PHAS-I or PThr^36/45. AU1-mTOR was also immunoprecipitated from each extract, and immune complexes were subjected to SDSPAGE and immunoblotted with mTAb2, to detect mTOR, and with anti-HA antibodies, to detect HA-mLST8 and HA-raptor. Nontransfected 293T cells were incubated with increasing concentrations of FTS for 1 h before extracts were prepared. mTOR was immunoprecipitated with mTAb1, and samples were subjected to SDS-PAGE.
(§4) FIGS. 12A & 12B represent data showing the effects of incubating cells with increasing concentrations of FTS and GTS on mTOR activity and mTOR association with raptor and mLST8. AU1-mTOR, HA-raptor, and HAmLST8 were overexpressed in 293T cells. The cells were then incubated for 1 h with increasing concentrations of FTS (●, ▴, ▪) or GTS (∘, Δ, □) before extracts were prepared. Immunoprecipitations were then conducted with anti-AU1 antibodies. mTOR kinase activity (●, ∘) was determined by measuring ^32P incorporation into [His^6]PHAS-I in immune complex kinases assays performed with [γ-^32P]ATP. The relative amounts of HA-raptor (▴, Δ) and HA-mLST8 (▪, □) that coimmunoprecipitated with AU1-mTOR were determined after immunoblotting with anti-HA antibodies. The results (mean values±S.E. from 3 experiments) are expressed as percentages of the mTOR activity (FIG. 12A) or coimmunoprecipitating proteins (FIG. 12B) from samples incubated without FTS or GTS, and have been corrected for the amounts of AU1-mTOR immunoprecipitated.
To investigate further the inhibitory effects of FTS on mTOR signaling, the effect of the drug on the association of mTOR, raptor, and mLST8 was determined. AU1-mTOR and HA-tagged forms of raptor and mLST8 were overexpressed in 293T cells, which were then incubated with increasing concentrations of FTS before AU1-mTOR was immunoprecipitated with anti-AU1 antibodies. Immunoblots were prepared with anti-HA antibodies to assess the relative amounts of HA-raptor and HA-mLST8 that coimmunoprecipitated with AU 1-mTOR (FIG. 11A).
Results obtained with overexpressed proteins are not necessarily representative of responses of endogenous proteins. Therefore, experiments were conducted to investigate the effect FTS on the endogenous TORC1 in nontransfected cells. […]

[4] = system: PHAS-I; test: PHAS-I phosphorylation in 293T cells (SDS-PAGE mobility, PThr36/45 immunoblot); format: cell-based; conditions: increasing concentrations, 1 h
Procedure: as §3
To investigate the effects of FTS on mTOR function in 293T cells, changes in the phosphorylation of PHAS-I, a well characterized target of mTOR were monitored. Phosphorylation of Ser64 and Thr69 in PHAS-I causes a dramatic decrease in the mobility of the protein in SDS-PAGE, so that changes in the mobility provide an index of changes in phosphorylation state. […]

[5] = molecular target: T2, mTOR-mLST8 (Homo sapiens, UniProt P42345+Q9BVC4); test: Coimmunoprecipitation of mLST8 with mTOR from 293T cells incubated with compound; format: cell-based; conditions: nontransfected 293T cells; much less pronounced than effect on raptor
T2 construct: expressed in transfected cells; host or cells: 293T
Procedure: as §3, §4
To investigate further the inhibitory effects of FTS on mTOR signaling, the effect of the drug on the association of mTOR, raptor, and mLST8 was determined. […]

[6] = doses needed to inhibit tumor growth; cited from earlier work
[7] = FTS 100 μM, serum containing medium

CC(C)=CCC/C(C)=C/CC/C(C)=C/CSc1ccccc1C(=O)O [FTS, farnesylthiosalicylic acid]
time at which inhibition of Thr389 phosphorylation maximized [1, 7]: 24 h | time at which inhibition of Thr389 phosphorylation occurred [1, 7]: 2 h | Thr229 phosphorylation of p70 S6K ([1]; FTS 100 μM, serum containing medium, time course): only slightly reduced | phosphorylation of ERK1/2 MAPK, Akt (Ser473), p70S6K (Thr389) and PHAS-1 (Ser65) ([1]; FTS 24 h in culture media): dose-dependently inhibited | fall of phosphorylated ERK1/2 and 4E BP 1 [2]: approximately 50% | p70 S 6 kinase and phospho-AKT [2]: inconsistent decrements | amount of endogenous raptor that coimmunoprecipitated with mTOR [3]: markedly decreased | phosphorylation of PHAS-I (electrophoretic mobility) [4]: decreased the phosphorylation | reactivity of PHAS-I with PThr36/45 phosphospecific antibodies [4]: markedly decreased | amount of endogenous mLST8 that coimmunoprecipitated with mTOR [5]: also decreased | animal weight [6]: does not cause a reduction of animal weight | toxicity [6]: non-toxic

Source: US20070037887A1, “Blockade of mtor to prevent a hormonal adaptive response” (University of Virginia Patent Foundation, priority 2003, published 2007)
